Measurements from US8834855B2, “Sunscreen compositions comprising carotenoids” (Promar AS, priority 2005, dated 2014).

What was measured:
[1] = Effects of temperature and pH on separation of diadinoxanthin from fucoxanthin (water:ethanol phase extracted with heptane); format: physicochemical
Description: (§1) Extraction is performed in a nitrogen atmosphere in equipment covered with aluminium foil. • 1. The pH of a water suspension of the microalgae P. tricornutum (14 g dry weight per liter of water) was adjusted to 8.3 and ethanol was added to a final ratio of water:ethanol=0.3:1.0. • 2. The water-ethanol solution was extracted by mixing with heptane (water-ethanol solution:heptane=1.3:1.0) for 1 hour at 20° C. • 3. The solution was separated into three phases by centrifugation (10 minutes at 3222×g): An upper heptane phase enriched in diadinoxanthin and fucoxanthin, a lower ethanol-water phase enriched in chlorophylls and degradation products of chlorophylls, and a third mid-phase with precipitated materials. The ratio of the concentration of diadinoxanthin to fucoxanthin in the water-ethanol phase was approximately 1:6. • 4. Water was added to the water-ethanol phase until a water:ethanol ratio of 0.7:1.0 was reached. This solution was extracted by a similar amount of heptane and the phases separated by centrifugation (as in step 3). Diadinoxanthin was enriched in the heptane phase (diadinoxanthin:fucoxanthin=1:1), and fucoxanthin and fucoxanthin-derivatives in the ethanol-water phase. • 5. The heptane phase was stored overnight at −20° C. to separate fucoxanthin which was separated by centrifugation as described above. (Alternatively, the precipitated material may be removed with a pipette.) • 6. The heptane phase was used for further purification of diadinoxanthin by HPLC as described hereinbefore to yield […] of the diadinoxanthin found in the starting material. Optimization
(§2) Values indicated are for the amount of each compound in the indicated phase. The value in brackets indicates the % distribution between the two phases.

[2] = Effects of temperature on extraction for 200 minutes, water:ethanol:heptane 1:1:1, pH 11; format: physicochemical; conditions: for amount in phase after extraction: 1:1:1, pH 11
[3] = Phase distribution of carotenoids in water-ethanol/heptane extraction at different water levels; format: physicochemical; conditions: room temperature, no pH adjustment
Description: as §1
Various parameters in the above described basic method were varied to establish the effect of water concentration, pH and temperature on the isolation method.
The method was performed at room temperature without pH adjustment.

[4] = Recovery of initial amount after extraction at different temperature and pH (stability); format: physicochemical
Excerpt: as §2

[5] = Irradiation absorption in an in vitro skin model (Vitro-skin, integrating sphere transmission); conditions: Miglyol solvent, compared to a conventional SPF 60 sun lotion
Description: A commercial sunscreen SPF60 was used for comparison. Vitro−skin+miglyol was used as the control. Curve 1: Vitro−skin+Miglyol, 2: SPF60, 3:fucoxanthin at 2.76 mg/ml, 4:fucoxanthin at 0.55 mg/ml, 5:fucoxanthin at 0.25 mg/ml, 6:diadinoxanthin at 0.64 mg/ml, 7:diadinoxanthin at 0.13 mg/ml; and
The concentrations are given as the sum of the given compounds and their degradation products (cis-fucoxanthin and diadinochrome). Solid lines with squares—diadinoxanthin. Solid line with diamonds—fucoxanthin. Dashed lines illustrate a projected linear relationship.
The in vitro method of Springsteen was used (Springsteen et al., 1999, Analytica Chimica Acta, 380, p155-164). Vitro-skin was used as the skin simulator and Miglyol (Miglyol 812F Neutraloel CHG. 040906) was used as the solvent. The tests were performed with a Varian Cary 300 Conc UV-Visible Spectrophotometer (with an integrating sphere). Fucoxanthin and diadinoxanthin (isolated as described in Example 2) were tested at the concentrations indicated on FIG. 3.

[6] = NaOH-buffer, pH 12.2, 50° C., Heptane phase
[7] = NaOH-buffer, pH 12.2, 50° C., Water-EtOH phase
[8] = Phosphate, pH 11, 20° C., Heptane phase
[9] = Phosphate, pH 11, 20° C., Water-EtOH phase
[10] = Phosphate, pH 11, 50° C., Heptane phase
[11] = Phosphate, pH 11, 50° C., Water-EtOH phase
[12] = water:EtOH:heptane 0:1:1, heptane phase
[13] = water:EtOH:heptane 0:1:1, water-EtOH phase
[14] = water:EtOH:heptane 0.1:1:1, heptane phase
[15] = water:EtOH:heptane 0.1:1:1, water-EtOH phase
[16] = water:EtOH:heptane 0.2:1:1, heptane phase
[17] = water:EtOH:heptane 0.2:1:1, water-EtOH phase
[18] = water:EtOH:heptane 0.4:1:1, heptane phase
[19] = water:EtOH:heptane 0.4:1:1, water-EtOH phase

| Structure (SMILES) | % distribution between the two phases [1, 6] | amount of compound in phase [1, 6] | % distribution between the two phases [1, 7] | amount of compound in phase [1, 7] | % distribution between the two phases [1, 8] | amount of compound in phase [1, 8] | amount in phase after extraction ([2]; 20 °C, Heptane phase) | amount in phase after extraction ([2]; 20 °C, Water-EtOH phase) | amount in phase after extraction ([2]; 35 °C, Heptane phase) | amount in phase after extraction ([2]; 35 °C, Water-EtOH phase) | amount in phase after extraction ([2]; 50 °C, Heptane phase) | amount in phase after extraction ([2]; 50 °C, Water-EtOH phase) | phase distribution [3, 12] | phase distribution [3, 13] | phase distribution [3, 14] | phase distribution [3, 15] | phase distribution [3, 16] | phase distribution [3, 17] | phase distribution [3, 18] | phase distribution [3, 19] | further results |
| --- | --- | --- | --- | --- | --- | --- | --- | --- | --- | --- | --- | --- | --- | --- | --- | --- | --- | --- | --- | --- | --- |
| CC(=O)O[C@H]1CC(C)(C)C(=C=C/C(C)=C/C=C/C(C)=C/C=C/C=C(C)/C=C/C=C(\C)C(=O)C[C@@]23O[C@]2(C)C[C@@H](O)CC3(C)C)[C@](C)(O)C1 [fucoxanthin] | 0 (0%) | 0 (0%) | 0 (0%) | 0 (0%) | 95% | 4860 | 1065 | 380 | 610 | 210 | 95 | 0 | 7% | 93% | 49% | 51% | 2% | 98% | 3% | 97% | % distribution between the two phases [1, 9]: 5%; amount of compound in phase [1, 9]: 260; % distribution between the two phases [1, 10]: 95%; amount of compound in phase [1, 10]: 2745; % distribution between the two phases [1, 11]: 5%; amount of compound in phase [1, 11]: 135; stability at various temperatures ([2]; 20, 35, 50 °C, pH 11): more sensitive to higher temperatures; Total present in both phases ([4]; NaOH-buffer, pH 12.2, 50° C.): 0; Total present in both phases ([4]; Phosphate, pH 11, 20° C.): 5120; Total present in both phases ([4]; Phosphate, pH 11, 50° C.): 2880; stability under the temperature and pH conditions used ([4]; pH 11 to 12.2, 20 to 50° C.): more sensitive to extreme temperatures and pH; ability to absorb irradiation [5]: ability to absorb irradiation, particularly in the blue light range of the spectrum, but also in the upper UVA area |
| C=Cc1c(C)c2cc3nc(c4c5[n-]c(cc6nc(cc1[n-]2)C(C)=C6CC)c(C)c5C(=O)[C@@H]4C(=O)OC)[C@@H](CCC(=O)OC/C=C(\C)CCC[C@H](C)CCC[C@H](C)CCCC(C)C)[C@@H]3C.[Mg+2] [Chl a, chlorophyll a] | – | – | – | – | – | – | 3290 | 0 | 3505 | 0 | 4010 | 0 | 45% | 55% | 100% | 0% | 93% | 7% | 100% | 0% | – |
| CC1=C(C#C/C(C)=C/C=C/C(C)=C/C=C/C=C(C)/C=C/C=C(C)/C=C/[C@@]23O[C@]2(C)C[C@@H](O)CC3(C)C)C(C)(C)C[C@H](O)C1 [diadinoxanthin] | 100% | 1440 | 0 (0%) | 0 (0%) | 100% | 1500 | 1155 | 170 | 1260 | 180 | 1310 | 190 | 12% | 88% | 93% | 7% | 6% | 94% | 22% | 78% | % distribution between the two phases [1, 9]: 0 (0%); amount of compound in phase [1, 9]: 0 (0%); % distribution between the two phases [1, 10]: 100%; amount of compound in phase [1, 10]: 1470; % distribution between the two phases [1, 11]: 0 (0%); amount of compound in phase [1, 11]: 0 (0%); Total present in both phases ([4]; NaOH-buffer, pH 12.2, 50° C.): 1440; Total present in both phases ([4]; Phosphate, pH 11, 20° C.): 1500; Total present in both phases ([4]; Phosphate, pH 11, 50° C.): 1470; stability under the temperature and pH conditions used ([4]; pH 11): stable under the conditions used; ability to absorb irradiation [5]: ability to absorb irradiation, particularly in the blue light range of the spectrum, but also in the upper UVA area |
